# Data: ChEMBL document CHEMBL4680217, “Discovery of PROTAC BCL-X degraders as potent anticancer agents with low on-target platelet toxicity” (Eur J Med Chem, 2020)
# Activity calls are given as the source filed them. The calls are words filed in the database; no cut-off is given here.
# Assays:
# [1] = biological target: T1, Protein cereblon/Bcl-2-like protein 1 (Homo sapiens, UniProt Q07817+Q96SW2); experiment: Protac activity at CRBN/BCL-XL in human MOLT-4 cells assessed as induction of BCL-XL degradation measured after 16 hrs by immunoblotting analysis; format: cell-based
# Target sequence in this assay (Q07817 whole entry): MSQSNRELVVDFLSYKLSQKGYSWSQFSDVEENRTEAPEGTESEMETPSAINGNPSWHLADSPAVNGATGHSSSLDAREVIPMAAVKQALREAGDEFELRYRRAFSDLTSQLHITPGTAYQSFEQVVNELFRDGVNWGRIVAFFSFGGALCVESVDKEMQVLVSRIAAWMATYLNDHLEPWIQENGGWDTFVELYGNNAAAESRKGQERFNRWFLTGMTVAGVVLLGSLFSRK
# Target sequence in this assay (Q96SW2 whole entry): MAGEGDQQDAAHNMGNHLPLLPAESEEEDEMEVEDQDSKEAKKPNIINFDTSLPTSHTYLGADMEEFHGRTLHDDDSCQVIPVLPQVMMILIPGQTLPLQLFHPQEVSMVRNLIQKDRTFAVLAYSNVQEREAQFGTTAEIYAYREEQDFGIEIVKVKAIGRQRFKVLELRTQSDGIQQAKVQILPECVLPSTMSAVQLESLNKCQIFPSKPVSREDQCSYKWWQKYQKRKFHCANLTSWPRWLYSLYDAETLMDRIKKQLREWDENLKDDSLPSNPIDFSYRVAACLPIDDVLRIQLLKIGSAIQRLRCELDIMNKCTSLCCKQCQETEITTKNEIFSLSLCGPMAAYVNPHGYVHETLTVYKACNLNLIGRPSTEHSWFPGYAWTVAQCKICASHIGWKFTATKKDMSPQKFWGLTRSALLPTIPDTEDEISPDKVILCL
# [2] = biological target: T2, von Hippel-Lindau disease tumor suppressor/Bcl-2-like protein 1 (Homo sapiens, UniProt Q07817+P40337); experiment: Protac activity at VHL/BCL-XL in human MOLT-4 cells assessed as induction of BCL-XL degradation measured after 16 hrs by immunoblotting analysis; format: cell-based
# Target sequence in this assay (Q07817 whole entry): as the sequence (Q07817 whole entry) above
# Target sequence in this assay (P40337 whole entry): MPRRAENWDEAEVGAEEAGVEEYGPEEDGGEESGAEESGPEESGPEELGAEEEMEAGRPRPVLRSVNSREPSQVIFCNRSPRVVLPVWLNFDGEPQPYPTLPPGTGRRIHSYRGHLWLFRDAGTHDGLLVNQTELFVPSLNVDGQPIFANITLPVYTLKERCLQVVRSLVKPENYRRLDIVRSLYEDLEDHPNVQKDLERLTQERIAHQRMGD
# [3] = test system: MOLT-4; experiment: Antiproliferative activity against human MOLT-4 cells assessed as reduction in cell viability measured after 48 hrs by MTS assay; format: functional, cell-based; details: MOLT-4, 48 h
# [4] = biological target: T2, von Hippel-Lindau disease tumor suppressor/Bcl-2-like protein 1; experiment: Protac activity at VHL/BCL-XL in human MOLT-4 cells assessed as induction of BCL-XL degradation by measuring remaining BCL-XL level at 100 nM measured after 16 hrs by immunoblotting analysis relative to control; format: cell-based
# Target sequence in this assay (P40337 whole entry, looked up): as the sequence (P40337 whole entry) above
# Target sequence in this assay (Q07817 whole entry, looked up): as the sequence (Q07817 whole entry) above
# [5] = biological target: von Hippel-Lindau disease tumor suppressor/Apoptosis regulator Bcl-2 (Homo sapiens) (UniProt P10415+P40337); experiment: Protac activity at VHL/BCL2 in human MOLT-4 cells assessed as induction of BCL2 degradation at 100 nM measured after 16 hrs by immunoblotting analysis; format: cell-based
# [6] = test system: RS4-11; experiment: Antiproliferative activity against human RS4-11 cells assessed as reduction in cell viability measured after 48 hrs by MTS assay; format: functional, cell-based; details: RS4-11, 48 h
# [7] = test system: NCI-H146; experiment: Antiproliferative activity against human NCI-H146 cells assessed as reduction in cell viability measured after 48 hrs by MTS assay; format: functional, cell-based; details: NCI-H146, 48 h
# [8] = Toxicity in human platelet assessed as reduction in cell viability measured after 48 hrs by MTS assay; format: tissue-based; details: human platelets
# [9] = Selectivity index, ratio of IC50 for human platelet to IC50 for human MOLT-4 cells
# [10] = biological target: T1, Protein cereblon/Bcl-2-like protein 1; experiment: Protac activity at CRBN/BCL-XL in human MOLT-4 cells assessed as induction of BCL-XL degradation by measuring remaining BCL-XL level at 50 nM measured after 16 hrs by immunoblotting analysis relative to control; format: cell-based
# Target sequence in this assay (Q07817 whole entry, looked up): as the sequence (Q07817 whole entry) above
# Target sequence in this assay (Q96SW2 whole entry, looked up): as the sequence (Q96SW2 whole entry) above
# [11] = biological target: Protein cereblon/Apoptosis regulator Bcl-2 (Homo sapiens) (UniProt P10415+Q96SW2); experiment: Protac activity at CRBN/BCL2 in human MOLT-4 cells assessed as induction of BCL2 degradation at 50 nM measured after 16 hrs by immunoblotting analysis; format: cell-based
# [12] = test system: MOLT-4; experiment: Induction of apoptosis in human MOLT-4 cells assessed as viable cells at 10 nM measured after 48 hrs by Alexa Fluor 647-Annexin V/propidium iodide staining based flow cytometry (reference value: 97.1 to 97.3%); format: functional; details: read-out: Activity
# [13] = test system: MOLT-4; experiment: Induction of apoptosis in human MOLT-4 cells assessed as early apoptotic cells at 10 nM measured after 48 hrs by Alexa Fluor 647-Annexin V/propidium iodide staining based flow cytometry (reference value: 1.5 to 1.7%); format: functional
# [14] = test system: MOLT-4; experiment: Induction of apoptosis in human MOLT-4 cells assessed as late apoptotic cells at 10 nM measured after 48 hrs by Alexa Fluor 647-Annexin V/propidium iodide staining based flow cytometry (reference value: 1.1 to 1.4%); format: functional
# [15] = test system: MOLT-4; experiment: Induction of apoptosis in human MOLT-4 cells assessed as necrotic cells at 10 nM measured after 48 hrs by Alexa Fluor 647-Annexin V/propidium iodide staining based flow cytometry (reference value: 0.3 to 0.4%); format: functional
# [16] = test system: MOLT-4; experiment: Induction of apoptosis in human MOLT-4 cells assessed as viable cells at 100 nM measured after 48 hrs by Alexa Fluor 647-Annexin V/propidium iodide staining based flow cytometry (reference value: 97.1 to 97.3%); format: functional; details: read-out: Activity
# [17] = test system: MOLT-4; experiment: Induction of apoptosis in human MOLT-4 cells assessed as early apoptotic cells at 100 nM measured after 48 hrs by Alexa Fluor 647-Annexin V/propidium iodide staining based flow cytometry (reference value: 1.5 to 1.7%); format: functional
# [18] = test system: MOLT-4; experiment: Induction of apoptosis in human MOLT-4 cells assessed as late apoptotic cells at 100 nM measured after 48 hrs by Alexa Fluor 647-Annexin V/propidium iodide staining based flow cytometry (reference value: 1.1 to 1.4%); format: functional
# [19] = test system: MOLT-4; experiment: Induction of apoptosis in human MOLT-4 cells assessed as necrotic cells at 100 nM measured after 48 hrs by Alexa Fluor 647-Annexin V/propidium iodide staining based flow cytometry (reference value: 0.3 to 0.4%); format: functional
# [20] = test system: MOLT-4; experiment: Induction of apoptosis in human MOLT-4 cells assessed as viable cells at 100 nM measured after 48 hrs in presence of pan-caspase inhibitor QVD by Alexa Fluor 647-Annexin V/propidium iodide staining based flow cytometry (reference value: 97.1 to 97.3%); format: functional; details: read-out: Activity
# [21] = test system: MOLT-4; experiment: Induction of apoptosis in human MOLT-4 cells assessed as early apoptotic cells at 100 nM measured after 48 hrs in presence of pan-caspase inhibitor QVD by Alexa Fluor 647-Annexin V/propidium iodide staining based flow cytometry (reference value: 1.5 to 1.7%); format: functional
# [22] = test system: MOLT-4; experiment: Induction of apoptosis in human MOLT-4 cells assessed as late apoptotic cells at 100 nM measured after 48 hrs in presence of pan-caspase inhibitor QVD by Alexa Fluor 647-Annexin V/propidium iodide staining based flow cytometry (reference value: 1.1 to 1.4%); format: functional
# [23] = test system: MOLT-4; experiment: Induction of apoptosis in human MOLT-4 cells assessed as necrotic cells at 100 nM measured after 48 hrs in presence of pan-caspase inhibitor QVD by Alexa Fluor 647-Annexin V/propidium iodide staining based flow cytometry (reference value: 0.3 to 0.4%); format: functional
# [24] = biological target: T1, Protein cereblon/Bcl-2-like protein 1; experiment: Protac activity at CRBN/BCL-XL in human MOLT-4 cells assessed as induction of BCL-XL degradation at 33 to 1000 nM measured after 16 hrs by immunoblotting analysis; format: cell-based; details: dose 33-1000 nM
# Target sequence in this assay (Q07817 whole entry, looked up): as the sequence (Q07817 whole entry) above
# Target sequence in this assay (Q96SW2 whole entry, looked up): as the sequence (Q96SW2 whole entry) above
# [25] = test system: MOLT-4; experiment: Potency index, ratio of ABT-263 IC50 to test compound IC50 for antiproliferative activity against human MOLT-4 cells assessed as reduction in cell viability measured after 48 hrs by MTS assay; format: functional
# Sequence of Protein cereblon/Apoptosis regulator Bcl-2 (Homo sapiens) (P10415 whole entry, looked up): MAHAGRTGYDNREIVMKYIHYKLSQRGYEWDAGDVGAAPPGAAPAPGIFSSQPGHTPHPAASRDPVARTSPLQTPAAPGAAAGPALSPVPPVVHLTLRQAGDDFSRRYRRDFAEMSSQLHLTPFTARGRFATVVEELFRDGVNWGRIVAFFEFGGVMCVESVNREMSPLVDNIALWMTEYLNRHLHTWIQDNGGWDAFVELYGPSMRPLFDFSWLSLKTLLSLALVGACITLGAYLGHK
# Sequence of Protein cereblon/Apoptosis regulator Bcl-2 (Homo sapiens) (Q96SW2 whole entry, looked up): as the sequence (Q96SW2 whole entry) above
# Sequence of von Hippel-Lindau disease tumor suppressor/Apoptosis regulator Bcl-2 (Homo sapiens) (P10415 whole entry, looked up): as the sequence (P10415 whole entry, looked up) above
# Sequence of von Hippel-Lindau disease tumor suppressor/Apoptosis regulator Bcl-2 (Homo sapiens) (P40337 whole entry, looked up): as the sequence (P40337 whole entry) above
SMILES,DC50 [1] [nM],IC50 [3] [nM],Activity [4] [%],Activity [5],IC50 [6] [nM],IC50 [7] [nM],IC50 at 48 h [8] [nM],Ratio IC50 [9],also measured
CN(CCCNc1cccc2c1C(=O)N([C@@H]1CCC(=O)NC1=O)C2=O)CC[C@H](CSc1ccccc1)Nc1ccc(S(=O)(=O)NC(=O)c2ccc(N3CCN(CC4=C(c5ccc(Cl)cc5)CCC(C)(C)C4)CC3)cc2)cc1S(=O)(=O)C(F)(F)F,10.6,32.5,–,–,129,70.2,3300,101,Activity [10]: 31%; Activity [11]: inactive
CN(C)CC[C@H](CSc1ccccc1)Nc1ccc(S(=O)(=O)NC(=O)c2ccc(N3CCN(Cc4ccccc4-c4ccc(Cl)cc4)CC3)cc2)cc1[N+](=O)[O-] [ABT 737],–,227,–,–,49,43.8,242,1.1,viability at 0.01 µM [12]: 96%; Activity [13]: 2.5%; Activity [14]: 1.4%; Activity [15]: 0.1%; viability at 0.1 µM [16]: 40.7%; Activity [17]: 47.4%; Activity [18]: 11.6%; Activity [19]: 0.4%; viability at 0.1 µM [20]: 83.1%; Activity [21]: 2.6%; Activity [22]: 8.6%; Activity [23]: 5.4%
CN(CCOCCOCCOCCNc1cccc2c1C(=O)N([C@@H]1CCC(=O)N(C)C1=O)C2=O)CC[C@H](CSc1ccccc1)Nc1ccc(S(=O)(=O)NC(=O)c2ccc(N3CCN(CC4=C(c5ccc(Cl)cc5)CCC(C)(C)C4)CC3)cc2)cc1S(=O)(=O)C(F)(F)F,–,–,–,–,–,–,–,–,Activity [24]: inactive
Cc1ncsc1-c1ccc([C@H](C)NC(=O)[C@@H]2C[C@@H](O)CN2C(=O)[C@@H](NC(=O)CCOCCOCCN2CCN(CC[C@H](CSc3ccccc3)Nc3ccc(S(=O)(=O)NC(=O)c4ccc(N5CCN(CC6=C(c7ccc(Cl)cc7)CCC(C)(C)C6)CC5)cc4)cc3S(=O)(=O)C(F)(F)F)CC2)C(C)(C)C)cc1,–,914,55,inactive,–,–,–,–,–
Cc1ncsc1-c1ccc([C@H](C)NC(=O)[C@@H]2C[C@@H](O)CN2C(=O)[C@@H](NC(=O)COCCOCC(=O)N2CCN(CC[C@H](CSc3ccccc3)Nc3ccc(S(=O)(=O)NC(=O)c4ccc(N5CCN(CC6=C(c7ccc(Cl)cc7)CCC(C)(C)C6)CC5)cc4)cc3S(=O)(=O)C(F)(F)F)CC2)C(C)(C)C)cc1,–,512,79,inactive,–,–,–,–,–

# The next lines start with results.
DC50 [1] [nM],IC50 [3] [nM],Activity [4] [%],Activity [5],IC50 [6] [nM],IC50 [7] [nM],SMILES,IC50 at 48 h [8] [nM],Ratio IC50 [9],also measured
50,–,–,–,–,–,O=C1CCC(N2C(=O)c3cccc(NCCOCCOCc4cn(CCCC(=O)N5CCN(CC#Cc6ccc(OCCCc7sc(N8CCc9cccc(C(=O)Nc%10nc%11ccccc%11s%10)c9C8)nc7C(=O)O)c(F)c6)CC5)nn4)c3C2=O)C(=O)N1 (configuration not stated),–,–,–
–,77.1,14,inactive,213,278,Cc1ncsc1-c1ccc([C@H](C)NC(=O)[C@@H]2C[C@@H](O)CN2C(=O)[C@@H](NC(=O)CCCCCC(=O)N2CCN(CC[C@H](CSc3ccccc3)Nc3ccc(S(=O)(=O)NC(=O)c4ccc(N5CCN(CC6=C(c7ccc(Cl)cc7)CCC(C)(C)C6)CC5)cc4)cc3S(=O)(=O)C(F)(F)F)CC2)C(C)(C)C)cc1 [DT-2216],> 10000,>130,DC50 [2]: 53 nM
–,82,43,inactive,76,203,Cc1ncsc1-c1ccc([C@H](C)NC(=O)[C@@H]2C[C@@H](O)CN2C(=O)[C@@H](NC(=O)CCCCCN2CCN(CC[C@H](CSc3ccccc3)Nc3ccc(S(=O)(=O)NC(=O)c4ccc(N5CCN(CC6=C(c7ccc(Cl)cc7)CCC(C)(C)C6)CC5)cc4)cc3S(=O)(=O)C(F)(F)F)CC2)C(C)(C)C)cc1,> 10000,>122,DC50 [2]: 93 nM
–,81.3,28,inactive,189,265,Cc1ncsc1-c1ccc([C@H](C)NC(=O)[C@@H]2C[C@@H](O)CN2C(=O)[C@@H](NC(=O)CCCCCCN(C)CC[C@H](CSc2ccccc2)Nc2ccc(S(=O)(=O)NC(=O)c3ccc(N4CCN(CC5=C(c6ccc(Cl)cc6)CCC(C)(C)C5)CC4)cc3)cc2S(=O)(=O)C(F)(F)F)C(C)(C)C)cc1,> 10000,>123,DC50 [2]: 71 nM
4.5,17.3,–,–,38.5,24.6,CC1(C)CCC(c2ccc(Cl)cc2)=C(CN2CCN(c3ccc(C(=O)NS(=O)(=O)c4ccc(N[C@H](CCN5CCN(CCOCCOCCOCCNc6cccc7c6C(=O)N([C@@H]6CCC(=O)NC6=O)C7=O)CC5)CSc5ccccc5)c(S(=O)(=O)C(F)(F)F)c4)cc3)CC2)C1,1560,90,Activity [10]: 5%; Activity [11]: inactive; Ratio IC50 [25]: 12
6.3,29.2,–,–,62.2,61.7,CN(CCCCCCCn1cc(COCCOCCNc2cccc3c2C(=O)N([C@@H]2CCC(=O)NC2=O)C3=O)nn1)CC[C@H](CSc1ccccc1)Nc1ccc(S(=O)(=O)NC(=O)c2ccc(N3CCN(CC4=C(c5ccc(Cl)cc5)CCC(C)(C)C4)CC3)cc2)cc1S(=O)(=O)C(F)(F)F,6250,214,Activity [10]: 18%; Activity [11]: inactive
–,467,52,inactive,–,–,Cc1ncsc1-c1ccc([C@H](C)NC(=O)[C@@H]2C[C@@H](O)CN2C(=O)[C@@H](NC(=O)CCCCC(=O)N2CCN(CC[C@H](CSc3ccccc3)Nc3ccc(S(=O)(=O)NC(=O)c4ccc(N5CCN(CC6=C(c7ccc(Cl)cc7)CCC(C)(C)C6)CC5)cc4)cc3S(=O)(=O)C(F)(F)F)CC2)C(C)(C)C)cc1,–,–,–
